The values below are quoted from earlier work in publication PMC6222850, “^66Ga: A Novelty or a Valuable Preclinical Screening Tool for the Design of Targeted Radiopharmaceuticals?” (Molecules : A Journal of Synthetic Chemistry and Natural …, 2018).

The series relates to LNCaP tumors. On the set-up: method as in PMID 29623376.

Take `O=C(O)CC[C@H](NC(=O)N[C@@H](CCCCNC(=O)[C@H](Cc1ccc2ccccc2c1)NC(=O)[C@H]1CC[C@H](CNC(=O)CN2CCN(CC(=O)O)CCN(CC(=O)O)CCN(CC(=O)O)CC2)CC1)C(=O)O)C(=O)O` [PSMA-617]: the Clearance from blood entry was “fast clearance from blood”.
